# Laboratory results taken from patent US10632147B2, “Methods and compositions for treating inflammatory disorders” (priority 2007, dated 2020).
# Conditions: in vivo
smiles,measurement,value
NCc1ccc(S(N)(=O)=O)cc1 [Sulfamylon],safety profile (adverse effects),absence of adverse effects
